Columns and labels:
Experiment in all cases: Kinase panel
Format in all cases: biochemical
[1] = molecular target: T1, Aurora-B(h) (Homo sapiens, UniProt Q96GD4); conditions: read-out: % Residual Activity
T1 construct: purchased Eurofins (KinaseProfiler)
Procedure, shortened: (§1)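 Steps: profile rilpivirine against a broad kinase panel; determine IC50 by radioactive assay using ATP at the kinase-specific Km; convert IC50 to Ki by the Cheng–Prusoff relationship.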

[2] = molecular target: T2, B-Raf(V599E)(h) (Homo sapiens, UniProt P15056, V600E); conditions: read-out: % Residual Activity
T2 construct: purchased Eurofins (KinaseProfiler)
Procedure, shortened: as §1

[3] = molecular target: T3, B-Raf(h) (Homo sapiens, UniProt P15056); conditions: read-out: % Residual Activity
T3 construct: purchased Eurofins (KinaseProfiler)
Procedure, shortened: as §1

[4] = molecular target: T4, BIKe(h) (Homo sapiens, UniProt Q9NSY1); conditions: read-out: % Residual Activity
T4 construct: purchased Eurofins (KinaseProfiler)
Procedure, shortened: as §1

[5] = molecular target: T5, DMPK(h) (Homo sapiens, UniProt Q09013); conditions: read-out: % Residual Activity
T5 construct: purchased Eurofins (KinaseProfiler)
Procedure, shortened: as §1

[6] = molecular target: T6, GRK7(h) (Homo sapiens, UniProt Q8WTQ7); conditions: read-out: % Residual Activity
T6 construct: purchased Eurofins (KinaseProfiler)
T6 sequence (Q8WTQ7 whole entry): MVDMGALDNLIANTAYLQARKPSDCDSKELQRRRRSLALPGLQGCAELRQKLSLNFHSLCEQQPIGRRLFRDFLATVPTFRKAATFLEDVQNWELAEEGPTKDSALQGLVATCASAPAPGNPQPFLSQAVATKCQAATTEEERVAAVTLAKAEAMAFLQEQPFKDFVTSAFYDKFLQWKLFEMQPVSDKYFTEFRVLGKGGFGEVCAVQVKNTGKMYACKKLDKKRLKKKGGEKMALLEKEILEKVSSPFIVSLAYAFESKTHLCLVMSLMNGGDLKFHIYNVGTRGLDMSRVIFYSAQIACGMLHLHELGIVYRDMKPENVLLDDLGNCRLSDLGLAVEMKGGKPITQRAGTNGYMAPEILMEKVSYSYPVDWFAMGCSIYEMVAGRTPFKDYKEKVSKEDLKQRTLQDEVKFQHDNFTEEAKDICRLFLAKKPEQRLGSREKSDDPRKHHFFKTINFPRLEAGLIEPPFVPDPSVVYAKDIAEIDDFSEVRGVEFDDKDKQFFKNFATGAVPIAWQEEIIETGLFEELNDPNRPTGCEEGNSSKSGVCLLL
Procedure, shortened: as §1

[7] = molecular target: T7, IKKβ(h) (Homo sapiens, UniProt O14920); conditions: read-out: % Residual Activity
T7 construct: purchased Eurofins (KinaseProfiler)
Procedure, shortened: as §1

[8] = molecular target: T8, Lck(h) (Homo sapiens, UniProt P06239); conditions: read-out: % Residual Activity
T8 construct: purchased Eurofins (KinaseProfiler)
T8 sequence (P06239 whole entry): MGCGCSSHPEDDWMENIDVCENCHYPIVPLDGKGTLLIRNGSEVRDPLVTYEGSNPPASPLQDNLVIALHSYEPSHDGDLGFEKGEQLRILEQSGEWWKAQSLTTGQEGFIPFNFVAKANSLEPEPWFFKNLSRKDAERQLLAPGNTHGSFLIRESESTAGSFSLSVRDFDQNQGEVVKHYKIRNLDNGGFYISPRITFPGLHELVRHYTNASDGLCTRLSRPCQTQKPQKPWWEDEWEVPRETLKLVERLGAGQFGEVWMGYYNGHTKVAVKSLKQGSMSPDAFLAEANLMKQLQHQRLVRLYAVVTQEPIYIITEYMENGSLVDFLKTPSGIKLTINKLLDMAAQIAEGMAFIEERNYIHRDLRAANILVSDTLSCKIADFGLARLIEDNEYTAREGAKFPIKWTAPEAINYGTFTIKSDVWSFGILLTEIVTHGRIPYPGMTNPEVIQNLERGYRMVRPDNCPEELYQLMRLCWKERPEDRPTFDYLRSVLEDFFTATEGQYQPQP
Procedure, shortened: as §1

[9] = molecular target: T9, MAP4K4(h) (Homo sapiens, UniProt O95819); conditions: read-out: % Residual Activity
T9 construct: purchased Eurofins (KinaseProfiler)
Procedure, shortened: as §1

[10] = molecular target: T10, MAPKAP-K2(h) (Homo sapiens, UniProt P49137); conditions: read-out: % Residual Activity
T10 construct: purchased Eurofins (KinaseProfiler)
T10 sequence (P49137 whole entry): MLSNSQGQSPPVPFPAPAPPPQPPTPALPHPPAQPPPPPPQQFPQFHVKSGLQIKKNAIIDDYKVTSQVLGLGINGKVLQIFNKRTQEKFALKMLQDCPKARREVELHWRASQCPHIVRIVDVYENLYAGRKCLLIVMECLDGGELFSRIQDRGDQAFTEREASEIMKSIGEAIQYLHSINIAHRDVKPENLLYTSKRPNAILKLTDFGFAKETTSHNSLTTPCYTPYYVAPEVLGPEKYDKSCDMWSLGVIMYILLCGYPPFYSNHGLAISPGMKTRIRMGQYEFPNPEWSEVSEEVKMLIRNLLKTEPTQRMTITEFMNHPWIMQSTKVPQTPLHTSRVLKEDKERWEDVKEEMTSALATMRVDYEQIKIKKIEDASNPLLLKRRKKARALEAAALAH
Procedure, shortened: as §1

[11] = molecular target: T11, MST4(h) (Homo sapiens, UniProt Q9P289); conditions: read-out: % Residual Activity
T11 construct: purchased Eurofins (KinaseProfiler)
Procedure, shortened: as §1

[12] = molecular target: T12, NEK6(h) (Homo sapiens, UniProt Q9HC98); conditions: read-out: % Residual Activity
T12 construct: purchased Eurofins (KinaseProfiler)
Procedure, shortened: as §1

[13] = molecular target: T13, NIM1(h) (Homo sapiens, UniProt Q8IY84); conditions: read-out: % Residual Activity
T13 construct: purchased Eurofins (KinaseProfiler)
Procedure, shortened: as §1

[14] = molecular target: PI3 Kinase (p110a(E545K)/p85a)(h) (Homo sapiens, UniProt P42336, E545K); conditions: read-out: % Residual Activity
Sequence of PI3 Kinase (p110a(E545K)/p85a)(h) (P42336 whole entry E545K): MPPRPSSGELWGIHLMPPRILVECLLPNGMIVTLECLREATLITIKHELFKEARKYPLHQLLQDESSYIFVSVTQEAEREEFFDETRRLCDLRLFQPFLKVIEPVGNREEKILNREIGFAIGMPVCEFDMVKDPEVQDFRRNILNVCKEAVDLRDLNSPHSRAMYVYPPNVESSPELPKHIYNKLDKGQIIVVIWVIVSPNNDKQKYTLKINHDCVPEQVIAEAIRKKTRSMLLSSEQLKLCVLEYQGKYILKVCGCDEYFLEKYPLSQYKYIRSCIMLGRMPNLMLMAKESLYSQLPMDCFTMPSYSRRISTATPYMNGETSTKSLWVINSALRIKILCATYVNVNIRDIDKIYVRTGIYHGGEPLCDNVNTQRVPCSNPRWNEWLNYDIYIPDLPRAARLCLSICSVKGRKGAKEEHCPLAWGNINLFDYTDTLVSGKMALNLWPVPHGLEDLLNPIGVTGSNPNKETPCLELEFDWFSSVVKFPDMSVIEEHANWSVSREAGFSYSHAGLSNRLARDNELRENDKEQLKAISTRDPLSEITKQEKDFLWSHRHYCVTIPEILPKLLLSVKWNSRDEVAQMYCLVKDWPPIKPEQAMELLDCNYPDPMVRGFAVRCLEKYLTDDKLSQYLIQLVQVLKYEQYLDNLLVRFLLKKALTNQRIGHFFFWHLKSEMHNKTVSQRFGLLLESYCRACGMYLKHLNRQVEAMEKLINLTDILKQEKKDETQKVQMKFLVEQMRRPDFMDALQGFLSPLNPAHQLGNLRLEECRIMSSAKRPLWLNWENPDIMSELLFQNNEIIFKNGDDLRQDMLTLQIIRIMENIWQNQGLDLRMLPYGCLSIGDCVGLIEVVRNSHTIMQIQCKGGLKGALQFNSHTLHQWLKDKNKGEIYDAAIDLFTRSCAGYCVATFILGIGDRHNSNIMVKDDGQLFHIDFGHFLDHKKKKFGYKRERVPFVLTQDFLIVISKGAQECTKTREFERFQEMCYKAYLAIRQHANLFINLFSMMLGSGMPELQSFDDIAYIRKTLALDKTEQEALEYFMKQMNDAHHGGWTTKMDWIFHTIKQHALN
Sequence of PI3 Kinase (p110a(E545K)/p85a)(h) (P27986 whole entry partner): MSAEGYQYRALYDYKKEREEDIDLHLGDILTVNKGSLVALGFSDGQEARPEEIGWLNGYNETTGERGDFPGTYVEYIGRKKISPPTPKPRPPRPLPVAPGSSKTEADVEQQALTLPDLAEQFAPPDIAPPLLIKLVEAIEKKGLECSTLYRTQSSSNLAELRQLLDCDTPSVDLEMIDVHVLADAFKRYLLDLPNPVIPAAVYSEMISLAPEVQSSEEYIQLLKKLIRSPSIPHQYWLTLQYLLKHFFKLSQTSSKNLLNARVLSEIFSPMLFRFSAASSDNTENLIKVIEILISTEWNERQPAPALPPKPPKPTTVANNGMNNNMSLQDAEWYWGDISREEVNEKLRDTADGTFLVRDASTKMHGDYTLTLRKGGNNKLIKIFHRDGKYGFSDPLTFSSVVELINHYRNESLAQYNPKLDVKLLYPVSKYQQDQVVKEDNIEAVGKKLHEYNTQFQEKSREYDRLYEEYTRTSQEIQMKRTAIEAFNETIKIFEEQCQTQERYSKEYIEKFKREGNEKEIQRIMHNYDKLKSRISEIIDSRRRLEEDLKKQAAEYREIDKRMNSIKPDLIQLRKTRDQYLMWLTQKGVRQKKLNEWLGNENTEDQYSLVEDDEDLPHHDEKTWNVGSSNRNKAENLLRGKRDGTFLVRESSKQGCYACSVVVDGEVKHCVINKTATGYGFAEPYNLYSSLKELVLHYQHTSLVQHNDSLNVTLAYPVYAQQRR
Procedure, shortened: as §1

[15] = molecular target: T14, PKCμ(h) (Homo sapiens, UniProt Q15139); conditions: read-out: % Residual Activity
T14 construct: purchased Eurofins (KinaseProfiler)
Procedure, shortened: as §1

[16] = molecular target: T15, Rsk1(r) (Rattus norvegicus, UniProt Q63531); conditions: read-out: % Residual Activity
T15 construct: purchased Eurofins (KinaseProfiler)
T15 sequence (Q63531 whole entry): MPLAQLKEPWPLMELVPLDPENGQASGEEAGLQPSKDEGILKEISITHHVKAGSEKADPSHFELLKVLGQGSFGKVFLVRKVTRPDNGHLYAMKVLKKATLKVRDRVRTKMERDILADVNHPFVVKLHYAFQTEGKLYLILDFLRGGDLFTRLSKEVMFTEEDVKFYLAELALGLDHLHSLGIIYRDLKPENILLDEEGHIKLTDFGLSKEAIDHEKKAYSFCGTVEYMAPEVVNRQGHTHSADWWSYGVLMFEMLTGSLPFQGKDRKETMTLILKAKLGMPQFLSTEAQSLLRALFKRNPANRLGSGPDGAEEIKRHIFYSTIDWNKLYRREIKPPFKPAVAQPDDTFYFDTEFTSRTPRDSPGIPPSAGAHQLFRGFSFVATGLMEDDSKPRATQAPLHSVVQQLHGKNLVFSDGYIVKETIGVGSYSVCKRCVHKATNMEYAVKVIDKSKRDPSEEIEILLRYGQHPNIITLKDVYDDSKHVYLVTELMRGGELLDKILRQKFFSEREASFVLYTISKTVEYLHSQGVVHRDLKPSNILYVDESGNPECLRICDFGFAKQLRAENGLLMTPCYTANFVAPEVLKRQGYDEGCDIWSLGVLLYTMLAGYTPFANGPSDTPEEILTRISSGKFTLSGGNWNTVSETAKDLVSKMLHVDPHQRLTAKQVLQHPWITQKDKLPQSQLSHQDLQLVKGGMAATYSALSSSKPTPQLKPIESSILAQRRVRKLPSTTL
Procedure, shortened: as §1

[17] = molecular target: T16, SGK3(h) (Homo sapiens, UniProt Q96BR1); conditions: read-out: % Residual Activity
T16 construct: purchased Eurofins (KinaseProfiler)
Procedure, shortened: as §1

[18] = molecular target: T17, SIK3(h) (Homo sapiens, UniProt Q9Y2K2); conditions: read-out: % Residual Activity
T17 construct: purchased Eurofins (KinaseProfiler)
Procedure, shortened: as §1

[19] = molecular target: T18, TrkB(h) (Homo sapiens, UniProt Q16620); conditions: read-out: % Residual Activity
T18 construct: purchased Eurofins (KinaseProfiler)
Procedure, shortened: as §1

[20] = molecular target: T19, Yes(h) (Homo sapiens, UniProt P07947)
T19 construct: purchased Eurofins (KinaseProfiler)
T19 sequence (P07947 whole entry): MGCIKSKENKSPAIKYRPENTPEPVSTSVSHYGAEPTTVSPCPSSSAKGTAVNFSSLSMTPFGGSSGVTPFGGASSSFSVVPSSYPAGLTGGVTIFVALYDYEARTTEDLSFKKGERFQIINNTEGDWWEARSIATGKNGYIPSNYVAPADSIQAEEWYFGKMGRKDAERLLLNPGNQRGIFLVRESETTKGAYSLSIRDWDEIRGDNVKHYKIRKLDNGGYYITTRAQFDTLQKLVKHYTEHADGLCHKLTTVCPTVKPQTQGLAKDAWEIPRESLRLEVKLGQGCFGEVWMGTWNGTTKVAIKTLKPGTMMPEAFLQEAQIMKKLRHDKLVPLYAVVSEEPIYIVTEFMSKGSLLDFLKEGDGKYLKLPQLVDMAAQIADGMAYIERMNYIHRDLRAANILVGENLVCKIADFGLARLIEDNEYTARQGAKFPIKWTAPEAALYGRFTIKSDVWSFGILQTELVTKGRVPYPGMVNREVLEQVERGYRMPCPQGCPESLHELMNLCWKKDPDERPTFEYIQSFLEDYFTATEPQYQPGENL
Procedure, shortened: as §1

[21] = molecular target: T20, ZIPK(h) (Homo sapiens, UniProt O43293); conditions: read-out: % Residual Activity
T20 construct: purchased Eurofins (KinaseProfiler)
T20 sequence (O43293 whole entry): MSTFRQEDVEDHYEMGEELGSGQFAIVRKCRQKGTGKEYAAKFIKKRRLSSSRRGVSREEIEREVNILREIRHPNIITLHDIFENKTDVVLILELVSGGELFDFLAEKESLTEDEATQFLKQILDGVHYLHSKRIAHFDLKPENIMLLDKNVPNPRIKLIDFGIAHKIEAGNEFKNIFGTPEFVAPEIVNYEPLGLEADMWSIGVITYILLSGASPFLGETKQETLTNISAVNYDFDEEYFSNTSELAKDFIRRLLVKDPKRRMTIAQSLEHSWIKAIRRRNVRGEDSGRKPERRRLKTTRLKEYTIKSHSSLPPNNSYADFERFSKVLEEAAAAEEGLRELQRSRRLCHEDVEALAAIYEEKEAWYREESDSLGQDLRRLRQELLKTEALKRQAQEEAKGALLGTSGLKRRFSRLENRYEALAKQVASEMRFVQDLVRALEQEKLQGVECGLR
Procedure, shortened: as §1

Cc1cc(/C=C/C#N)cc(C)c1Nc1ccnc(Nc2ccc(C#N)cc2)n1 [rilpivirine, (E)-4-((4-((4-(2-cyanoethenyl)-2,6-dimethylphenyl)amino)pyrimidin-2-yl)amino)benzonitrile]
remaining activity at 1 µM [1]: 85%
remaining activity at 1 µM [2]: 95%
remaining activity at 1 µM [3]: 80%
remaining activity at 1 µM [4]: 56%
remaining activity at 1 µM [5]: 100%
remaining activity at 1 µM [6]: 70%
remaining activity at 1 µM [7]: 95%
remaining activity at 1 µM [8]: 33%
remaining activity at 1 µM [9]: 79%
remaining activity at 1 µM [10]: 100%
remaining activity at 1 µM [11]: 91%
remaining activity at 1 µM [12]: 94%
remaining activity at 1 µM [13]: 88%
remaining activity at 1 µM [14]: 98%
remaining activity at 1 µM [15]: 98%
remaining activity at 1 µM [16]: 90%
remaining activity at 1 µM [17]: 99%
remaining activity at 1 µM [18]: 89%
remaining activity at 1 µM [19]: 72%
inhibition at 1 µM ([20]; YES, read-out: inhibitory activity): > 70%
remaining activity at 1 µM ([20]; read-out: % Residual Activity): 17%
remaining activity at 1 µM [21]: 85%
